Broadly, the EC50 is the midpoint of the concentration-response curve. For orientation: IC50 means the concentration needed to halve the response being measured.

From ChEMBL document CHEMBL1145712, “Two new lignans with activity against influenza virus from the medicinal plant Rhinacanthus nasutus” (J Nat Prod, 1997) come the findings set out here.

For series [1], the system named is Human alphaherpesvirus 2. Kind of series: Antiviral activity against HSV2 MS in african green monkey Vero cells by viral cytopathic effect assay. Type of series: functional, organism-based. The note with it: Human alphaherpesvirus 2, MS. On the technique in general: Cytopathic effects are the visible damage that an infection or toxin causes in cultured cells.
A short description of series [2]: Selectivity index, ratio of IC50 for african green monkey Vero cells to EC50 for HSV2 MS.
In series [3] the test system is Vero. Nature of the series: Cytotoxicity against african green monkey Vero cells by MTT assay. Type of series: cell-based. The note with it: Chlorocebus sabaeus.
A short description of series [4]: Selectivity index, ratio of IC50 for MDCK cells to EC50 for influenza A virus NWS33. In kind it is toxicity, cell-based. The note with it: dog, read-out: Ratio IC50/EC50.
The test system of series [5] is MDCK. Kind of series: Cytotoxicity against MDCK cells by neutral red assay. Type of series: cell-based. The note with it: Canis lupus familiaris.
In series [6] the test system is Influenza A virus. Nature of the series: Antiviral activity against influenza A virus NWS33 in MDCK cells assessed as inhibition of viral cytopathic effect by neutral red assay. In kind it is functional, organism-based.
Series [7] deals with Influenza A virus. Nature of the series: Antiviral activity against influenza A virus NJH1N1 in MDCK cells by hemadsorption-inhibition assay. In kind it is functional, organism-based.
Series [8] is described as follows: Selectivity index, ratio of IC50 for MDCK cells to EC50 for influenza A virus NJH1N1. In kind it is toxicity, cell-based. The note with it: dog, read-out: Ratio IC50/EC50.

Structures are written as SMILES. Converted amounts (≈) assume the structure as drawn. Some results are limits rather than exact numbers.

For the compound `Nc1nc2c(ncn2COCCO)c(=O)[nH]1` [ACYCLOVIR], in series [1], it took 1.5 µg/mL (≈ 6.66 µM) to reach a half-maximal effect (EC50). Besides, the “Ratio IC50/EC50” value in series [2] was more than 60. In series [3], the IC50 is more than 100 µg/mL.

Consider `NC(=O)c1ncn([C@@H]2O[C@H](CO)[C@@H](O)[C@H]2O)n1` [RIBAVIRIN], for which the selectivity ratio in series [4] was more than 59. The IC50 in series [5] is more than 200 µg/mL. Moreover, in series [6], the EC50 was 3.7 µg/mL (≈ 15.2 µM).

Consider `NC12CC3CC(CC(C3)C1)C2` [AMANTADINE], for which the IC50 in series [5] worked out at 56 µg/mL (≈ 370 µM). Moreover, in series [7], the 50% effective concentration (EC50) stood at 0.054 µg/mL (≈ 0.357 µM). In addition, in series [8], the selectivity ratio is 1000.

As for `COC(=O)C(Cc1ccc2c(c1)OCO2)C(Cc1cc(OC)c2c(c1)OCO2)C(=O)OC` (stereo unspecified) [RHINACANTHIN F], the selectivity ratio in series [4] was 6.8; in series [8] it was more than 18. For the same compound, the IC50 in series [5] is 17 µg/mL (≈ 38.3 µM); in series [3], 4.4 µg/mL (≈ 9.9 µM). Besides, the EC50 in series [7] is less than 0.94 µg/mL; in series [6] it was 3.1 µg/mL (≈ 6.98 µM).

As to `COC(=O)/C(=C/c1ccc2c(c1)OCO2)C(Cc1cc(OC)c2c(c1)OCO2)C(=O)OC` (stereo unspecified) [RHINACANTHIN E], the selectivity ratio was 15 in series [4] and 26 in series [8]. The IC50 in series [5] was 44 µg/mL (≈ 99.5 µM); in series [3] it was 17 µg/mL (≈ 38.4 µM). For the same compound, the EC50 in series [7] was found to be 1.7 µg/mL (≈ 3.84 µM); in series [6] it was 7.4 µg/mL (≈ 16.7 µM).
